The term Ki denotes the dissociation constant of the complex between target and ligand, obtained from inhibition or displacement. The low end stands for a stronger hold on the target, the high end for a looser hold on the target.

The values that follow come from ChEMBL document CHEMBL1127517 (J Med Chem, 1994).

Assay [1] addresses T1, Sodium-dependent dopamine transporter (Rattus norvegicus, UniProt P23977). As to the kind of experiment: Inhibitory constant towards reuptake of [125I]-12 from dopamine transporter in rat striatal membranes. The format is cell membranes, Membrane.
The target of assay [2] is T1, Sodium-dependent dopamine transporter. Nature of the assay: Inhibitory constant towards reuptake of [125I]-13 from dopamine transporter in rat striatal membranes. The format is cell membranes, Membrane.

T1 sequence (P23977 whole entry): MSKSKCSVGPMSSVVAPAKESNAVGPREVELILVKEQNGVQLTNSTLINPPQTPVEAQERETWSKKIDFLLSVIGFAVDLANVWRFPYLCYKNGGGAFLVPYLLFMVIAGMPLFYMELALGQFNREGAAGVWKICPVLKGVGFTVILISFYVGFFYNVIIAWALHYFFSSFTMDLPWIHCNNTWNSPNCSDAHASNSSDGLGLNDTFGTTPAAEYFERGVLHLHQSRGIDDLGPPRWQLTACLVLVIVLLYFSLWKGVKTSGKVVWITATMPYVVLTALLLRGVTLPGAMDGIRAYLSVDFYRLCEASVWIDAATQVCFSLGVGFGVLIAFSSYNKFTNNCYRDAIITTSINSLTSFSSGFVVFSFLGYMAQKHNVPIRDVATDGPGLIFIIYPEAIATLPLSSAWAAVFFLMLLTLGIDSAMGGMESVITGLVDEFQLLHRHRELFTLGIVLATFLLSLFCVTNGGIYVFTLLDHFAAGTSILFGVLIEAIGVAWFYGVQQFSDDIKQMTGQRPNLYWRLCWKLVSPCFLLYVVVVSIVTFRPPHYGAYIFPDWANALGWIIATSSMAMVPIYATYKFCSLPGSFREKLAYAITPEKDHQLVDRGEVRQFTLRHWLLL

As to `OC1(c2ccc(Cl)cc2)c2ccccc2C2=NCCN21` (configuration not stated) [MAZINDOL], the values for the Ki in assay [1] and in assay [2] were 32 nM and 41.6 nM, respectively.
